In ChEMBL document CHEMBL4706569, “Hydroxy-corrole and its gallium(III) complex as new photosensitizer for photodynamic therapy against breast carcinoma” (Eur J Med Chem, 2020):
Blank lines part the entries; values can stand above or below the molecule they belong to. Activity calls are given as the source filed them. No cut-off for these calls is given here.

Tests used:
[1] = Absorption property of the compound in DMF assessed as Q band molar extinction coefficient at 1 uM by UV-visible spectrophotometric method; format: physicochemical
HUVEC = assay: Phototoxicity against HUVEC assessed as reduction in cell viability preincubated for 4 hrs followed by irradiation with 0.3 W/cm2 of 625 +/- 2 nanometer LED light for 1 hr and measured after 42 hrs by MTT assay; format: cell-based; settings: Homo sapiens, light or radiation study
[2] = Absorption property of the compound in DMF assessed as soret band molar extinction coefficient at 1 uM by UV-visible spectrophotometric method; format: physicochemical
4T1 = assay: Phototoxicity against mouse 4T1 cells assessed as reduction in cell viability preincubated for 4 hrs followed by irradiation with 0.3 W/cm2 of 625 +/- 2 nanometer LED light for 1 hr and measured after 42 hrs by MTT assay; format: functional, cell-based; settings: 4T1, light or radiation study
[3] = Absorption property of the compound in DMF assessed as Q band absorption wavelength at 1 uM by UV-visible spectrophotometric method; format: physicochemical
MDA-MB-231 [4] = assay: Phototoxicity against human MDA-MB-231 cells assessed as reduction in cell viability preincubated for 4 hrs followed by irradiation with 0.3 W/cm2 of 625 +/- 2 nanometer LED light for 1 hr and measured after 42 hrs by MTT assay; format: functional, cell-based; settings: MDA-MB-231, light or radiation study
[5] = Absorption property of the compound in DMF assessed as soret band wavelength molar absorption coefficient at 1 uM by UV-visible spectrophotometric method; format: physicochemical
[6] = Absorption property of the compound in DMF assessed as soret band molar attenuation coefficient at 1 uM by UV-visible spectrophotometric method; format: physicochemical
[7] = Dark toxicity in HUVEC assessed as reduction in cell viability by MTT assay; format: cell-based; settings: human
[8] = Absorption property of the compound in DMF assessed as soret band absorption wavelength at 1 uM by UV-visible spectrophotometric method; format: physicochemical
[9] = Dark toxicity in mouse 4T1 cells assessed as reduction in cell viability by MTT assay; format: cell-based
[10] = Phototoxicity index, ratio of IC50 for cytotoxicity against HUVEC measured under dark condition to IC50 for phototoxicity against HUVEC upon LED light irradiation; settings: human, read-out: Ratio IC50
[11] = Phototoxicity index, ratio of IC50 for cytotoxicity against mouse 4T1 cells measured under dark condition to IC50 for phototoxicity against mouse 4T1 cells upon LED light irradiation
[12] = Induction of singlet oxygen generation in DMF solution assessed as singlet oxygen quantum yield at 1 uM irradiated with 625 +/- 2 nanometer laser light by DPBF-based assay; format: functional
[13] = Selectivity index, ratio of IC50 for HUVEC in presence of light irradiation to IC50 for human MDA-MB-231 cells in presence of light irradiation; format: toxicity; settings: HUVEC and MDA-MB-231 cells, read-out: Ratio IC50
[14] = Dark toxicity in human MDA-MB-231 cells assessed as reduction in cell viability by MTT assay; format: cell-based
[15] = Phototoxicity index, ratio of IC50 for cytotoxicity against human MDA-MB-231 cells measured under dark condition to IC50 for phototoxicity against human MDA-MB-231 cells upon LED light irradiation
MDA-MB-231 [16] = assay: Induction of ROS generation in human MDA-MB-231 cells at 2.5 uM preincubated for 4 hrs followed by 625 +/- 2 nanometer LED light irradiation for 1 hr and measured after 18 hrs by DCFH-DA staining based fluorescence microscopy; format: functional, cell-based; settings: time 23.0 hrs
MDA-MB-231 [17] = assay: Induction of apoptosis in human MDA-MB-231 cells assessed as late apoptotic cells at 2.5 uM preincubated for 4 hrs followed by 625 +/- 2 nanometer LED light irradiation for 1 hr and measured after 18 hrs by annexin V-FITC/PI based flow cytometric analysis (reference value: 1.34 %); format: functional; settings: time 23 hrs
MDA-MB-231 [18] = assay: Induction of apoptosis in human MDA-MB-231 cells assessed as late apoptotic cells at 2.5 uM under dark condition by annexin V-FITC/PI based flow cytometric analysis (reference value: 0.67 %); format: functional
MDA-MB-231 [19] = assay: Induction of cell cycle arrest in human MDA-MB-231 cells assessed as accumulation at G2 phase at 5 uM measured after 24 hrs under dark condition by RNase A/propidium iodide staining based flow cytometry analysis (reference value: 24.4 %); format: functional
[20] = Drug localization in mitochondria of human MDA-MB-231 cells at 20 uM incubated for 4 hrs by Mito-tracker dye based confocal laser scanning microscopy; format: ADME; settings: mda-mb-231, 4 h
MDA-MB-231 [21] = assay: Induction of cell cycle arrest in human MDA-MB-231 cells assessed as accumulation at G2 phase at 5 uM preincubated with 625 +/- 2 nanometer LED light irradiation for 1 hrs and measured after 24 hrs by RNase A/propidium iodide staining based flow cytometry analysis (reference value: 22.1 %); format: functional; settings: time 25 hrs
MDA-MB-231 [22] = assay: Induction of ROS generation in human MDA-MB-231 cells at 2.5 uM in dark by DCFH-DA staining based fluorescence microscopy; format: functional, cell-based
MDA-MB-231 [23] = assay: Induction of cell cycle arrest in human MDA-MB-231 cells assessed as accumulation at sub-G1 phase at 5 uM measured after 24 hrs under dark condition by RNase A/propidium iodide staining based flow cytometry analysis (reference value: 2.56 %); format: functional
MDA-MB-231 [24] = assay: Induction of apoptosis in human MDA-MB-231 cells assessed as necrotic cells at 2.5 uM preincubated for 4 hrs followed by 625 +/- 2 nanometer LED light irradiation for 1 hr and measured after 18 hrs by annexin V-FITC/PI based flow cytometric analysis (reference value: 0.41 %); format: functional; settings: time 23 hrs
MDA-MB-231 [25] = assay: Induction of cell cycle arrest in human MDA-MB-231 cells assessed as accumulation at G1 phase at 5 uM preincubated with 625 +/- 2 nanometer LED light irradiation for 1 hrs and measured after 24 hrs by RNase A/propidium iodide staining based flow cytometry analysis (reference value: 43.6 %); format: functional; settings: time 25 hrs
MDA-MB-231 [26] = assay: Induction of apoptosis in human MDA-MB-231 cells assessed as viable cells at 2.5 uM under dark condition by annexin V-FITC/PI based flow cytometric analysis (reference value: 99.0 %); format: functional; settings: read-out: Activity
MDA-MB-231 [27] = assay: Induction of apoptosis in human MDA-MB-231 cells assessed as early apoptotic cells at 2.5 uM under dark condition by annexin V-FITC/PI based flow cytometric analysis (reference value: 0 %); format: functional
MDA-MB-231 [28] = assay: Induction of cell cycle arrest in human MDA-MB-231 cells assessed as accumulation at sub-G1 phase at 5 uM preincubated with 625 +/- 2 nanometer LED light irradiation for 1 hrs and measured after 24 hrs by RNase A/propidium iodide staining based flow cytometry analysis (reference value: 3.93 %); format: functional; settings: time 25 hrs
MDA-MB-231 [29] = assay: Induction of cell cycle arrest in human MDA-MB-231 cells assessed as accumulation at S phase at 5 uM preincubated with 625 +/- 2 nanometer LED light irradiation for 1 hrs and measured after 24 hrs by RNase A/propidium iodide staining based flow cytometry analysis (reference value: 29.0 %); format: functional; settings: time 25 hrs
MDA-MB-231 [30] = assay: Induction of apoptosis in human MDA-MB-231 cells assessed as necrotic cells at 2.5 uM under dark condition by annexin V-FITC/PI based flow cytometric analysis (reference value: 0.36 %); format: functional
MDA-MB-231 [31] = assay: Induction of cell cycle arrest in human MDA-MB-231 cells assessed as accumulation at S phase at 5 uM measured after 24 hrs under dark condition by RNase A/propidium iodide staining based flow cytometry analysis (reference value: 24.8 %); format: functional
MDA-MB-231 [32] = assay: Induction of cell cycle arrest in human MDA-MB-231 cells assessed as accumulation at G1 phase at 5 uM measured after 24 hrs under dark condition by RNase A/propidium iodide staining based flow cytometry analysis (reference value: 47.5 %); format: functional
MDA-MB-231 [33] = assay: Induction of mitochondrial depolarization in human MDA-MB-231 cells at 2.5 uM in dark by JC1 staining based fluorescence microscopy; format: functional, cell-based
[34] = Drug uptake in human MDA-MB-231 cells at 10 uM by flow cytometric analysis; format: ADME, cell-based; settings: mda-mb-231, 10 µM, TDE = time-dependent effect
MDA-MB-231 [35] = assay: Induction of apoptosis in human MDA-MB-231 cells assessed as viable cells at 2.5 uM preincubated for 4 hrs followed by 625 +/- 2 nanometer LED light irradiation for 1 hr and measured after 18 hrs by annexin V-FITC/PI based flow cytometric analysis (reference value: 98.0 %); format: functional; settings: MDA-MB-231, light or radiation study, time 23 hrs, read-out: Activity
MDA-MB-231 [36] = assay: Induction of mitochondrial depolarization in human MDA-MB-231 cells at 2.5 uM preincubated for 4 hrs followed by 625 +/- 2 nanometer LED light irradiation for 1 hr and measured after 18 hrs by JC1 staining based fluorescence microscopy; format: functional, cell-based; settings: time 23.0 hrs
[37] = Drug localization in lysosome of human MDA-MB-231 cells at 20 uM incubated for 4 hrs by Lyso-tracker dye based confocal laser scanning microscopy; format: ADME, subcellular; settings: mda-mb-231, 4 h
MDA-MB-231 [38] = assay: Induction of apoptosis in human MDA-MB-231 cells assessed as early apoptotic cells at 2.5 uM preincubated for 4 hrs followed by 625 +/- 2 nanometer LED light irradiation for 1 hr and measured after 18 hrs by annexin V-FITC/PI based flow cytometric analysis (reference value: 0.27 %); format: functional; settings: time 23 hrs
[39] = Drug uptake in human MDA-MB-231 cells at 10 uM incubated for 4 hrs by Hoechst 33342 staining based fluorescence microscopy; format: ADME, cell-based; settings: mda-mb-231, 4 h

Activity [1]: 4.57 log
Activity [2]: 5.11 log
Activity [3]: 629 nm
Activity [5]: 441 nm
Activity [6]: 5.08 log
Activity [8]: 425 nm
SMILES: Oc1ccccc1-c1c2nc(c(-c3c(F)c(F)c(F)c(F)c3F)c3ccc([nH]3)c3ccc([nH]3)c(-c3c(F)c(F)c(F)c(F)c3F)c3ccc1[nH]3)C=C2
IC50 (HUVEC): 4.75 µM
IC50 (4T1): 0.46 µM
IC50 (MDA-MB-231 [4]): 5.81 µM
IC50 [7]: > 100 µM
IC50 [9]: > 100 µM
selectivity ratio [10]: > 21.1
Ratio IC50 [11]: >217.39
Activity [12]: 0.45
selectivity ratio [13]: 0.82
IC50 [14]: 50.8 µM
Ratio IC50 [15]: 8.75

SMILES: Oc1cccc(-c2c3nc(c(-c4cccc(O)c4)c4ccc([nH]4)c(-c4cccc(O)c4)c4nc(c(-c5cccc(O)c5)c5ccc2[nH]5)CC4)C=C3)c1 [TEMOPORFIN]
IC50 (HUVEC): 1.5 µM
IC50 (4T1): 0.05 µM
IC50 (MDA-MB-231 [4]): 0.87 µM
IC50 [7]: > 100 µM
IC50 [9]: 38 µM
selectivity ratio [10]: > 66.7
Ratio IC50 [11]: 760.2
selectivity ratio [13]: 1.72
IC50 [14]: 33.4 µM
Ratio IC50 [15]: 38.41

Activity [1]: 4.62 log
Activity [2]: 5.12 log
Drug uptake [20]: Active
Activity [3]: 633 nm
Activity [5]: 443 nm
Activity [6]: 5.09 log
Activity [8]: 427 nm
Drug uptake [34]: Tde
Drug uptake [37]: Active
Drug uptake [39]: Active
SMILES: Oc1ccc(-c2c3nc(c(-c4c(F)c(F)c(F)c(F)c4F)c4ccc([nH]4)c4ccc([nH]4)c(-c4c(F)c(F)c(F)c(F)c4F)c4ccc2[nH]4)C=C3)cc1
Activity (MDA-MB-231 [16]): Active
Activity (MDA-MB-231 [17]): 30.1%
Activity (MDA-MB-231 [18]): 1.01%
Activity (MDA-MB-231 [19]): 26.1%
IC50 (HUVEC): 9.32 µM
IC50 (4T1): 0.3 µM
Activity (MDA-MB-231 [21]): 17.5%
Activity (MDA-MB-231 [22]): inactive
Activity (MDA-MB-231 [23]): 2.84%
Activity (MDA-MB-231 [24]): 5.29%
Activity (MDA-MB-231 [25]): 25.1%
viability at 2.5 µM (MDA-MB-231 [26]): 98.3%
Activity (MDA-MB-231 [27]): 0.013%
Activity (MDA-MB-231 [28]): 38.6%
Activity (MDA-MB-231 [29]): 18.1%
IC50 (MDA-MB-231 [4]): 0.42 µM
Activity (MDA-MB-231 [30]): 0.72%
Activity (MDA-MB-231 [31]): 23.2%
IC50 [7]: > 100 µM
Activity (MDA-MB-231 [32]): 46.7%
Activity (MDA-MB-231 [33]): inactive
viability at 2.5 µM (MDA-MB-231 [35]): 64.5%
Activity (MDA-MB-231 [36]): Active
IC50 [9]: > 100 µM
selectivity ratio [10]: > 10.9
Activity (MDA-MB-231 [38]): 0.095%
Ratio IC50 [11]: >333.33
Activity [12]: 0.55
selectivity ratio [13]: 22.2
IC50 [14]: > 100 µM
Ratio IC50 [15]: >238.1

Activity [1]: 4.61 log
Activity [2]: 5.12 log
Activity [3]: 633 nm
Activity [5]: 443 nm
Activity [6]: 5.1 log
Activity [8]: 428 nm
SMILES: Oc1cccc(-c2c3nc(c(-c4c(F)c(F)c(F)c(F)c4F)c4ccc([nH]4)c4ccc([nH]4)c(-c4c(F)c(F)c(F)c(F)c4F)c4ccc2[nH]4)C=C3)c1
IC50 (HUVEC): 0.89 µM
IC50 (4T1): 0.57 µM
IC50 (MDA-MB-231 [4]): 1.64 µM
IC50 [7]: > 100 µM
IC50 [9]: > 100 µM
selectivity ratio [10]: > 112
Ratio IC50 [11]: >175.44
Activity [12]: 0.46
selectivity ratio [13]: 0.54
IC50 [14]: > 100 µM
Ratio IC50 [15]: >60.98
